# In ChEMBL document CHEMBL5338723, “Emerging Target-Directed Approaches for the Treatment and Diagnosis of Microbial Infections” (J Med Chem, 2023):
# *1 amine or outer side, *2 acyl side, *3 side chain or, on linkers, in order; H or OH if unused. Where a SMILES comes first, the peptide text is derived from it. Side-chain parts run from the residue outwards. [ ]: non-standard residue; d: D form. The star is where a group is joined. X1 = Cn1c(=N)ccn([C@@H]2S[C@H]([C@@H](O)[C@@H](N[*:1])C(=O)[*:2])[C@H](O)[C@H]2O)c1=O; DAMPA = CN(Cc1cnc2nc(N)nc(N)c2n1)c1ccc(C(=O)*)cc1; Orn(N5-OH,N5-Ac) = CC(=O)N(O)CCC[C@H](N)C(=O)O; γGlu = O=C(O)[C@H](CCC(=O)[*:2])N[*:1]; Ethylenediamine = C(CN[*:2])N[*:1]
# Tests used:
# Escherichia coli [1] = assay: Antimicrobial activity against Escherichia coli B assessed as microbial growth inhibition; format: functional
# Escherichia coli [2] = assay: Antimicrobial activity against Escherichia coli F assessed as microbial growth inhibition; format: functional
# Escherichia coli [3] = assay: Antimicrobial activity against Escherichia coli ML35p assessed as microbial growth inhibition; format: functional
# Escherichia coli [4] = assay: Antimicrobial activity against Escherichia coli MC4100 assessed as microbial growth inhibition; format: functional
# Escherichia coli [5] = assay: Antimicrobial activity against aroB negative Escherichia coli H1443 assessed as microbial growth inhibition; format: functional
# Escherichia coli [6] = assay: Antimicrobial activity against aroB/fepA negative Escherichia coli H873 assessed as microbial growth inhibition; format: functional
# Escherichia coli [7] = assay: Antimicrobial activity against aroB/fiu negative Escherichia coli H1594 assessed as microbial growth inhibition; format: functional
# Escherichia coli [8] = assay: Antimicrobial activity against aroB/cir negative Escherichia coli H2222 assessed as microbial growth inhibition; format: functional
# Escherichia coli [9] = assay: Antimicrobial activity against aroB/cir/fiu negative Escherichia coli H1728 assessed as microbial growth inhibition; format: functional
# Escherichia coli [10] = assay: Antimicrobial activity against aroB/fepA/cir negative Escherichia coli H1875 assessed as microbial growth inhibition; format: functional
# Escherichia coli [11] = assay: Antimicrobial activity against aroB/fepA/fiu negative Escherichia coli H1877 assessed as microbial growth inhibition; format: functional
# Escherichia coli [12] = assay: Antimicrobial activity against fhuA negative Escherichia coli C600 assessed as microbial growth inhibition; format: functional
# Escherichia coli [13] = assay: Antimicrobial activity against Escherichia coli C600 harboring pHX405 plasmid assessed as microbial growth inhibition; format: functional
# Escherichia coli [14] = assay: Antimicrobial activity against Escherichia coli W3110 assessed as microbial growth inhibition; format: functional
# Escherichia coli [15] = assay: Antimicrobial activity against pTon positive Escherichia coli W3110-KP1344 harboring pMS7 assessed as microbial growth inhibition; format: functional
# Escherichia coli [16] = assay: Antimicrobial activity against exbB/exbD negative Escherichia coli W3110-6 assessed as microbial growth inhibition; format: functional
# Salmonella enteritidis = assay: Antimicrobial activity against Salmonella enterica subsp. enterica serovar Enteritidis assessed as increase in microbial growth inhibition; format: functional
# Klebsiella pneumoniae = assay: Antibacterial activity against Klebsiella pneumoniae assessed as microbial growth inhibition; format: functional
# Enterobacter cloacae = assay: Antibacterial activity against Enterobacter cloacae; format: functional
# Streptococcus pneumoniae = assay: Antimicrobial activity against Streptococcus pneumoniae assessed as microbial growth inhibition; format: functional
# Yersinia enterocolitica = assay: Antimicrobial activity against Yersinia enterocolitica assessed as microbial growth inhibition; format: functional
# [17] = Cytotoxicity against human L02 assessed as lethal dose; format: toxicity, cell-based; conditions: L02 cells, read-out: LD50 (the source's name)
# [18] = Potency index, ratio of test compound LD50 to methotrexate LD50 for cytotoxicity against human L02 cells; format: toxicity, cell-based
# Escherichia coli [19] = assay: Antimicrobial activity against Escherichia coli UTI89 assessed as microbial growth inhibition; format: functional
# Enterococcus faecium = assay: Antimicrobial activity against vancomycin-resistant Enterococcus faecium ATCC 51559 assessed as microbial growth inhibition; format: functional
# Enterococcus faecalis = assay: Antimicrobial activity against vancomycin-resistant Enterococcus faecalis ATCC 51575 assessed as microbial growth inhibition; format: functional
# Staphylococcus aureus [20] = assay: Antimicrobial activity against vancomycin intermediate Staphylococcus aureus assessed as microbial growth inhibition; format: functional
# Staphylococcus aureus [21] = assay: Antimicrobial activity against methicillin-resistant Staphylococcus aureus ATCC 33591 assessed as microbial growth inhibition; format: functional
# Escherichia coli [22] = assay: Antimicrobial activity against Escherichia coli ATCC 25922 assessed as microbial growth inhibition; format: functional
# Escherichia coli [23] = assay: Antimicrobial activity against Escherichia coli NCTC 13441 assessed as microbial growth inhibition; format: functional
# Escherichia coli [24] = assay: Antimicrobial activity against Escherichia coli NCTC 13462 assessed as microbial growth inhibition; format: functional
# Escherichia coli [25] = assay: Antimicrobial activity against Escherichia coli NCTC 13846 assessed as microbial growth inhibition; format: functional
# Escherichia coli [26] = assay: Antimicrobial activity against Escherichia coli AR055 assessed as microbial growth inhibition; format: functional
# Escherichia coli [27] = assay: Antimicrobial activity against Escherichia coli AR089 assessed as microbial growth inhibition; format: functional
# Escherichia coli [28] = assay: Antimicrobial activity against Escherichia coli AR0114 assessed as microbial growth inhibition; format: functional
# Escherichia coli [29] = assay: Antimicrobial activity against Escherichia coli AR0137 assessed as microbial growth inhibition; format: functional
# Escherichia coli [30] = assay: Antimicrobial activity against Escherichia coli AR0150 assessed as microbial growth inhibition; format: functional
# Escherichia coli [31] = assay: Antimicrobial activity against Escherichia coli AR0346 assessed as microbial growth inhibition; format: functional
# Escherichia coli [32] = assay: Antimicrobial activity against Escherichia coli AR0349 assessed as microbial growth inhibition; format: functional
# Escherichia coli [33] = assay: Antimicrobial activity against Escherichia coli AR0350 assessed as microbial growth inhibition; format: functional
# Escherichia coli [34] = assay: Antimicrobial activity against Escherichia coli AR0493 assessed as microbial growth inhibition; format: functional
# Escherichia coli [35] = assay: Antimicrobial activity against Escherichia coli AR0494 assessed as microbial growth inhibition; format: functional
# Escherichia coli [36] = assay: Antimicrobial activity against Escherichia coli B096a assessed as microbial growth inhibition; format: functional
# Escherichia coli [37] = assay: Antimicrobial activity against Escherichia coli B808 assessed as microbial growth inhibition; format: functional
# Escherichia coli [38] = assay: Antimicrobial activity against Escherichia coli ATCC BAA-2340 assessed as microbial growth inhibition; format: functional
# Escherichia coli [39] = assay: Antimicrobial activity against Escherichia coli ATCC BAA-2469 assessed as microbial growth inhibition; format: functional
# Escherichia coli [40] = assay: Antimicrobial activity against Escherichia coli ExPEC H5 assessed as microbial growth inhibition; format: functional
# Escherichia coli [41] = assay: Antimicrobial activity against Escherichia coli H4/5 assessed as microbial growth inhibition; format: functional
# Escherichia coli [42] = assay: Antimicrobial activity against Escherichia coli IR3 assessed as microbial growth inhibition; format: functional
# Escherichia coli [43] = assay: Antimicrobial activity against Escherichia coli IR45 assessed as microbial growth inhibition; format: functional
# Escherichia coli [44] = assay: Antimicrobial activity against Escherichia coli IR57 assessed as microbial growth inhibition; format: functional
# Escherichia coli [45] = assay: Antimicrobial activity against Escherichia coli Swiss 2 (AF45) assessed as microbial growth inhibition; format: functional
# Escherichia coli [46] = assay: Antimicrobial activity against Escherichia coli Swiss 13 assessed as microbial growth inhibition; format: functional
# Escherichia coli [47] = assay: Antimicrobial activity against Escherichia coli Swiss 15 assessed as microbial growth inhibition; format: functional
# Escherichia coli [48] = assay: Antimicrobial activity against Escherichia coli BW25113 assessed as microbial growth inhibition; format: functional
# Escherichia coli [49] = assay: Antimicrobial activity against Escherichia coli JW0451-2 assessed as microbial growth inhibition; format: functional
# Acinetobacter baumannii [50] = assay: Antimicrobial activity against Acinetobacter baumannii ACC00527 assessed as microbial growth inhibition; format: functional
# Acinetobacter baumannii [51] = assay: Antimicrobial activity against Acinetobacter baumannii GS2AB1 assessed as microbial growth inhibition; format: functional
# Acinetobacter baumannii [52] = assay: Antimicrobial activity against Acinetobacter baumannii Naval-81 assessed as microbial growth inhibition; format: functional
smiles,measurement,setting,value
"CC(=O)N(O)CCC[C@H](NC(=O)[C@H](CCCN(O)C(C)=O)NC(=O)[C@@H](N)CCCN(O)C(C)=O)C(=O)N[C@@H](CO)C(=O)N[C@@H](C(=O)O)[C@H](O)[C@H]1S[C@@H](n2ccc(=N)n(C)c2=O)[C@H](O)[C@H]1O (H-[Orn(N5-OH,N5-Ac)][Orn(N5-OH,N5-Ac)][Orn(N5-OH,N5-Ac)]S[X1]-OH)",MIC,Escherichia coli [1],0.04 µM
same,MIC,Escherichia coli [2],0.04 µM
same,MIC,Escherichia coli [3],0.04 µM
same,MIC,Escherichia coli [4],0.04 µM
same,MIC,Escherichia coli [5],0.04 µM
same,MIC,Escherichia coli [6],0.04 µM
same,MIC,Escherichia coli [7],0.04 µM
same,MIC,Escherichia coli [8],0.04 µM
same,MIC,Escherichia coli [9],0.04 µM
same,MIC,Escherichia coli [10],0.04 µM
same,MIC,Escherichia coli [11],0.04 µM
same,MIC,Escherichia coli [12],0.04 µM
same,MIC,Escherichia coli [13],0.04 µM
same,MIC,Escherichia coli [14],0.04 µM
same,MIC,Escherichia coli [15],0.04 µM
same,MIC,Escherichia coli [16],0.04 µM
same,MIC,Salmonella enteritidis,0.04 µM
same,MIC,Klebsiella pneumoniae,0.04 µM
same,MIC,Enterobacter cloacae,0.04 µM
"CC(=O)N(O)CCC[C@H](NC(=O)[C@H](CCCN(O)C(C)=O)NC(=O)[C@@H](N)CCCN(O)C(C)=O)C(=O)N[C@@H](CCC(=O)NCCNC(=O)CC[C@H](NC(=O)c1ccc(N(C)Cc2cnc3nc(N)nc(N)c3n2)cc1)C(=O)O)C(=O)O (H-[Orn(N5-OH,N5-Ac)][Orn(N5-OH,N5-Ac)][Orn(N5-OH,N5-Ac)]E([Ethylenediamine-γGlu-DAMPA])-OH)",MIC,Streptococcus pneumoniae,0.00172 µM
same,MIC,Yersinia enterocolitica,0.00684 µM
same,CC50,[17],18.5 µM
same,selectivity ratio,[18],2310
CN[C@H](CC(C)C)C(=O)N[C@H]1C(=O)N[C@@H](CC(N)=O)C(=O)N[C@H]2C(=O)N[C@H]3C(=O)N[C@H](C(=O)N[C@H](C(=O)O)c4cc(O)cc(O)c4-c4cc3ccc4O)[C@H](O)c3ccc(c(Cl)c3)Oc3cc2cc(c3O[C@@H]2O[C@H](CO)[C@@H](O)[C@H](O)[C@H]2O[C@H]2C[C@](C)(N)[C@H](O)[C@H](C)O2)Oc2ccc(cc2Cl)[C@H]1O [VANCOMYCIN],MIC,Escherichia coli [19],64 µg/mL
same,MIC,Enterococcus faecium,750 µM
same,MIC,Enterococcus faecalis,250 µM
same,MIC,Staphylococcus aureus [20],13 µM
same,MIC,Staphylococcus aureus [21],0.63 µM
same,MIC,Escherichia coli [22],64 µg/mL
same,MIC,Escherichia coli [23],64 µg/mL
same,MIC,Escherichia coli [24],64 µg/mL
same,MIC,Escherichia coli [25],64 µg/mL
same,MIC,Escherichia coli [26],64 µg/mL
same,MIC,Escherichia coli [27],64 µg/mL
same,MIC,Escherichia coli [28],64 µg/mL
same,MIC,Escherichia coli [29],64 µg/mL
same,MIC,Escherichia coli [30],64 µg/mL
same,MIC,Escherichia coli [31],64 µg/mL
same,MIC,Escherichia coli [32],64 µg/mL
same,MIC,Escherichia coli [33],64 µg/mL
same,MIC,Escherichia coli [34],64 µg/mL
same,MIC,Escherichia coli [35],64 µg/mL
same,MIC,Escherichia coli [36],64 µg/mL
same,MIC,Escherichia coli [37],64 µg/mL
same,MIC,Escherichia coli [38],64 µg/mL
same,MIC,Escherichia coli [39],64 µg/mL
same,MIC,Escherichia coli [40],64 µg/mL
same,MIC,Escherichia coli [41],64 µg/mL
same,MIC,Escherichia coli [42],64 µg/mL
same,MIC,Escherichia coli [43],64 µg/mL
same,MIC,Escherichia coli [44],64 µg/mL
same,MIC,Escherichia coli [45],64 µg/mL
same,MIC,Escherichia coli [46],64 µg/mL
same,MIC,Escherichia coli [47],64 µg/mL
same,MIC,Escherichia coli [48],64 µg/mL
same,MIC,Escherichia coli [49],64 µg/mL
same,MIC,Acinetobacter baumannii [50],64 µg/mL
same,MIC,Acinetobacter baumannii [51],64 µg/mL
same,MIC,Acinetobacter baumannii [52],64 µg/mL
